From US10226045B2, “Azoline compounds” (priority 2014, dated 2019)

How the values were obtained:
Type in all cases: in vivo
[1] = system: Boll Weevil (Anthonomus grandis); assay: Boll weevil, insect diet microtiter plate test; settings: 120 h, 2500 ppm, eggs on sprayed insect diet, egg and larval mortality after 5 days, in comparison with untreated controls, read-out: mortality
Description: B.5 Boll Weevil (Anthonomus grandis)
For evaluating control of boll weevil (Anthonomus grandis) the test unit consisted of 96-well-microtiter plates containing an insect diet and 5-10 A. grandis eggs.
The compounds were formulated using a solution containing 75% v/v water and 25% v/v DMSO. Different concentrations of formulated compounds were sprayed onto the insect diet at 5 μl, using a custom built micro atomizer, at two replications.
After application, microtiter plates were incubated at about 25±1° C. and about 75±5% relative humidity for 5 days. Egg and larval mortality was then visually assessed.

[2] = system: Red Spider Mite (Tetranychus kanzawai); assay: Red spider mite, sprayed cowpea beans; settings: 300 ppm, mites on sprayed cowpea beans, 72 hours after treatment, in comparison with untreated controls, read-out: mortality
Description: B.9 Red Spider Mite (Tetranychus kanzawai)
The active compound was dissolved at the desired concentration in a mixture of 1:1 (vol:vol) distilled water:acetone. Add surfactant (Kinetic HV) was added at a rate of 0.01% (vol/vol). The test solution was prepared at the day of use.
Potted cowpea beans of 4-5 days of age were cleaned with tap water and sprayed with 1-2 ml of the test solution using air driven hand atomizer. The treated plants were allowed to air dry and afterwards inoculated with 30 or more mites by clipping a cassava leaf section from rearing population. Treated plants were placed inside a holding room at about 25-27° C. and about 50-60% relative humidity. Percent mortality was assessed 72 hours after treatment.

[3] = system: Diamond Back Moth (Plutella xylostella); assay: Diamond back moth, cabbage leaf dip test; settings: foliar, 300 ppm, 3rd instar larvae on dipped cabbage leaves, 72 hours after treatment, in comparison with untreated controls, read-out: mortality
Description: B.1 Diamond Back Moth (Plutella xylostella)
The active compound was dissolved at the desired concentration in a mixture of 1:1 (vol:vol) distilled water:aceteone. Surfactant (Kinetic HV) was added at a rate of 0.01% (vol/vol). The test solution was prepared at the day of use.
Leaves of cabbage were dipped in test solution and air-dried. Treated leaves were placed in petri dishes lined with moist filter paper and inoculated with ten 3rd instar larvae. Mortality was recorded 72 hours after treatment.

[4] = system: Southern Armyworm (Spodoptera eridania); assay: Southern armyworm, sprayed lima bean plants; settings: 96 h, 1 ppm, larvae on sprayed lima bean plants, 4 days after treatment, in comparison with untreated controls, read-out: mortality
Description: B.10 Southern Armyworm (Spodoptera eridania)
The active compounds were formulated in cyclohexanone as a 10,000 ppm solution supplied in tubes. The tubes were inserted into an automated electrostatic sprayer equipped with an atomizing nozzle and they served as stock solutions for which lower dilutions were made in 50% acetone:50% water (v/v). A nonionic surfactant (Kinetic®) was included in the solution at a volume of 0.01% (v/v).
Lima bean plants (variety Sieva) were grown 2 plants to a pot and selected for treatment at the 1st true leaf stage. Test solutions were sprayed onto the foliage by an automated electrostatic plant sprayer equipped with an atomizing spray nozzle. The plants were dried in the sprayer fume hood and then removed from the sprayer. Each pot was placed into perforated plastic bags with a zip closure. About 10 to 11 armyworm larvae were placed into the bag and the bags zipped closed. Test plants were maintained in a growth room at about 25° C. and about 20-40% relative humidity for 4 days, avoiding direct exposure to fluorescent light (24 hour photoperiod) to prevent trapping of heat inside the bags. Mortality and reduced feeding were assessed 4 days after treatment, compared to untreated control plants.

O=C(NC1CS(=O)(=O)C1)c1ccc(C2=NCC(c3cc(Cl)c(F)c(Cl)c3)(C(F)(F)F)C2)c2c1CCC2 (stereo not shown) [Compound 2-3, 7-[3-(3,5-Dichloro-4-fluoro-phenyl)-3-(trifluoromethyl)-2,4-dihydropyrrol-5-yl]-N-(1,1-dioxothietan-3-yl)indane-4-carboxamide]
≥ 75%: mortality at 2500 ppm [1] | mortality at 300 ppm [2] | mortality at 300 ppm [3] | mortality at 1 ppm [4]
